The subject of the assay is BDF1 mice, B16 melanoma ip, median survival T/C. Put plainly: NCI In Vivo Anticancer Drug Screen. Data for tumor model B16 Melanoma (intraperitoneal) in B6D2F1 (BDF1) mice. Conditions: endpoint: median survival time, higher = longer survival. The procedure, abridged: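 Values are ratios of treated (T) to vehicle-control (C) measurements of survival or tumor size in tumor-bearing mice.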

Setting [1] is: dose: 25.0 mg/kg/injection, schedule: Q01DX009 (ip), vehicle: saline with Tween-80.
Where [2] appears, read: dose: 25.0 mg/kg/injection, schedule: Q04DX003 (ip), vehicle: saline with Tween-80.
Where [3] appears, read: dose: 50.0 mg/kg/injection, schedule: Q01DX009 (ip), vehicle: saline with Tween-80.
[4] abbreviates: dose: 50.0 mg/kg/injection, schedule: Q04DX003 (ip), vehicle: saline with Tween-80.
Where [5] appears, read: dose: 100.0 mg/kg/injection, schedule: Q01DX009 (ip), vehicle: saline with Tween-80.
Where [6] appears, read: dose: 100.0 mg/kg/injection, schedule: Q01DX009 (ip), vehicle: Klucel (hydroxypropylcellulose) (HPC).
Setting [7] is: dose: 100.0 mg/kg/injection, schedule: Q04DX003 (ip), vehicle: Klucel (hydroxypropylcellulose) (HPC).
[8] abbreviates: dose: 200.0 mg/kg/injection, schedule: Q01DX009 (ip), vehicle: Klucel (hydroxypropylcellulose) (HPC).
Where [9] appears, read: dose: 200.0 mg/kg/injection, schedule: Q04DX003 (ip), vehicle: Klucel (hydroxypropylcellulose) (HPC).
Where [10] appears, read: dose: 400.0 mg/kg/injection, schedule: Q01DX009 (ip), vehicle: Klucel (hydroxypropylcellulose) (HPC).
Where [11] appears, read: dose: 6.25 mg/kg/injection, schedule: Q01DX009 (ip), vehicle: saline with Tween-80.
[12] abbreviates: dose: 12.5 mg/kg/injection, schedule: Q01DX009 (ip), vehicle: saline with Tween-80.
The mark [13] stands for this setting: dose: 75.0 mg/kg/injection, schedule: Q01DX009 (ip), vehicle: Klucel (hydroxypropylcellulose) (HPC).
The mark [14] stands for this setting: dose: 150.0 mg/kg/injection, schedule: Q01DX009 (ip), vehicle: Klucel (hydroxypropylcellulose) (HPC).
Setting [15] is: dose: 300.0 mg/kg/injection, schedule: Q01DX009 (ip), vehicle: Klucel (hydroxypropylcellulose) (HPC).
[16] abbreviates: dose: 50.0 mg/kg/injection, schedule: Q01DX009 (ip), vehicle: Klucel (hydroxypropylcellulose) (HPC).
The mark [17] stands for this setting: dose: 100.0 mg/kg/injection, schedule: Q01DX009 (ip), vehicle: saline.
Setting [18] is: dose: 200.0 mg/kg/injection, schedule: Q01DX009 (ip), vehicle: saline.
[19] abbreviates: dose: 400.0 mg/kg/injection, schedule: Q01DX009 (ip), vehicle: saline.
Where [20] appears, read: dose: 25.0 mg/kg/injection, schedule: Q01DX009 (ip), vehicle: Klucel (hydroxypropylcellulose) (HPC).

This passage reports T/C results from PubChem BioAssay AID192 (DTP/NCI, 2004).

Structures are written as SMILES. Several values for one entry are separate records, joined by “and”; a condition that tells them apart may be missing. Equal entries are not always repeated. Inconclusive results and toxic doses are left out.

Turning to `O=C(CCCCl)CC(O)(C(F)(F)Cl)C(F)(F)Cl`, the T/C runs as follows: under setting [1], 114 % of control; under setting [2], 97 % of control; under setting [3], 114 % of control; under setting [4], 102 % of control; under setting [5], 117 % of control; (dose: 100.0 mg/kg/injection, schedule: Q04DX003 (ip), vehicle: saline with Tween-80) 105 % of control.

As for `COc1ccccc1NC(=O)Oc1ccc(-c2ccccc2)cc1Br`, the T/C is, setting by setting: under setting [6], 100 % of control; under setting [7], 100 % of control; under setting [8], 96 % of control; under setting [9], 90 % of control; under setting [10], 96 % of control; (dose: 400.0 mg/kg/injection, schedule: Q04DX003 (ip), vehicle: Klucel (hydroxypropylcellulose) (HPC)) 96 % of control.

For `Cc1c2cc(Cl)c3ccccc3c2c[n+]2ccccc12`, the T/C runs as follows: (dose: 3.12 mg/kg/injection, schedule: Q01DX009 (ip), vehicle: saline with Tween-80) 110 % of control; under setting [11], 113 % of control; under setting [12], 110 % of control; under setting [1], 115 % of control; under setting [3], 115 % of control.

As for `CCCCCCCCCCCC[N+]1(CCCCCCCCCCCC)CCCC(C)C1` (centres undefined), the T/C (dose: 0.09 mg/kg/injection, schedule: Q01DX009 (ip), vehicle: Klucel (hydroxypropylcellulose) (HPC)) is 95 % of control; the T/C (dose: 0.18 mg/kg/injection, schedule: Q01DX009 (ip), vehicle: Klucel (hydroxypropylcellulose) (HPC)) was 97 % of control; the T/C (dose: 0.37 mg/kg/injection, schedule: Q01DX009 (ip), vehicle: Klucel (hydroxypropylcellulose) (HPC)) was 93 % of control and 95 % of control.

As to `Cc1ncc([N+](=O)[O-])n1CCO`, the T/C was 104 % of control (dose: 18.7 mg/kg/injection, schedule: Q01DX009 (ip), vehicle: Klucel (hydroxypropylcellulose) (HPC)); 118 % of control (dose: 37.5 mg/kg/injection, schedule: Q01DX009 (ip), vehicle: Klucel (hydroxypropylcellulose) (HPC)); 115 % of control under setting [13]; 102 % of control under setting [14]; 113 % of control under setting [15]; 106 % of control (dose: 600.0 mg/kg/injection, schedule: Q01DX009 (ip), vehicle: Klucel (hydroxypropylcellulose) (HPC)).

Consider `COc1ccc(NC(=O)Oc2ccccc2Cc2ccccc2)cc1`, for which the T/C is, setting by setting: under setting [16], 96 % of control; (dose: 50.0 mg/kg/injection, schedule: Q04DX003 (ip), vehicle: Klucel (hydroxypropylcellulose) (HPC)) 96 % of control; under setting [6], 93 % of control; under setting [7], 96 % of control; under setting [8], 100 % of control; under setting [9], 93 % of control.

As for `CC(=O)Nc1ccc2c(c1)Cc1cc(NC=O)ccc1-2`, the T/C reads like this: (dose: 0.75 mg/kg/injection, schedule: Q01DX009 (ip), vehicle: Klucel (hydroxypropylcellulose) (HPC)) 88 % of control; (dose: 1.5 mg/kg/injection, schedule: Q01DX009 (ip), vehicle: Klucel (hydroxypropylcellulose) (HPC)) 93 % of control; (dose: 3.0 mg/kg/injection, schedule: Q01DX009 (ip), vehicle: Klucel (hydroxypropylcellulose) (HPC)) 90 % of control.

Take `CCN(CCP(c1ccccc1)c1ccccc1)CCP(c1ccccc1)c1ccccc1`: the T/C is 119 % of control (dose: 3.13 mg/kg/injection, schedule: Q01DX009 (ip), vehicle: saline with Tween-80); 113 % of control under setting [11]; 90 % of control and 115 % of control under setting [12]; 104 % of control (dose: 12.5 mg/kg/injection, schedule: Q04DX003 (ip), vehicle: saline with Tween-80); 100 % of control under setting [1]; 107 % of control under setting [2]. Further, the T/C under setting [4] is 109 % of control.

On to `S=P(N1CC1)(N1CC1)N1CC1`, for which the T/C is 104 % of control (dose: 0.5 mg/kg/injection, schedule: Q01DX009 (ip), vehicle: saline); 106 % of control and 120 % of control (dose: 1.0 mg/kg/injection, schedule: Q02DX009 (ip), vehicle: saline); 110 % of control and 120 % of control (dose: 1.5 mg/kg/injection, schedule: Q01DX009 (ip), vehicle: saline); 112 % of control (dose: 1.5 mg/kg/injection, schedule: Q02DX009 (ip), vehicle: saline); 94 % of control and 111 % of control (dose: 2.0 mg/kg/injection, schedule: Q02DX009 (ip), vehicle: saline); 104 % of control and 111 % of control (dose: 3.0 mg/kg/injection, schedule: Q01DX009 (ip), vehicle: saline). The T/C by setting is: (dose: 3.0 mg/kg/injection, schedule: Q02DX009 (ip), vehicle: saline) 120 % of control; (dose: 4.0 mg/kg/injection, schedule: Q02DX009 (ip), vehicle: saline) 119 % of control and 120 % of control; (dose: 6.0 mg/kg/injection, schedule: Q01DX009 (ip), vehicle: saline) 86 % of control; (dose: 6.0 mg/kg/injection, schedule: Q02DX009 (ip), vehicle: saline) 116 % of control and 117 % of control; (dose: 8.0 mg/kg/injection, schedule: Q02DX009 (ip), vehicle: saline) 88 % of control and 122 % of control; (dose: 12.0 mg/kg/injection, schedule: Q02DX009 (ip), vehicle: saline) 86 % of control.

With `Cc1cccc(OCC(=O)O)c1`, the T/C by setting is: under setting [11], 106 % of control; under setting [12], 93 % of control; under setting [1], 86 % of control.

As to `O=c1[nH]c(=O)n(C2CC(O)C(CO)O2)cc1F` (centres undefined), the T/C (dose: 5.0 mg/kg/injection, schedule: Q01DX009 (ip), vehicle: saline) is 92 % of control; the T/C under setting [1] is 173 % of control; the T/C under setting [5] was 183 % of control; the T/C (dose: 200.0 mg/kg/injection, schedule: Q01DX009 (ip), vehicle: saline with Tween-80) is 86 % of control.

`CC(=O)CCCc1ccccc1`: the T/C was 112 % of control under setting [17], 116 % of control under setting [18] and 98 % of control under setting [19].

Consider `COc1cccc(CNc2cccc(Cl)c2Cl)c1OC`, for which the T/C reads like this: (dose: 12.5 mg/kg/injection, schedule: Q01DX009 (ip), vehicle: Klucel (hydroxypropylcellulose) (HPC)) 99 % of control; under setting [20], 105 % of control; under setting [16], 101 % of control; under setting [6], 101 % of control; under setting [8], 95 % of control; under setting [10], 102 % of control.

Turning to `C[As](C)Sc1ncccn1`, the T/C by setting is: (dose: 3.13 mg/kg/injection, schedule: Q01DX009 (ip), vehicle: Klucel (hydroxypropylcellulose) (HPC)) 100 % of control; (dose: 6.25 mg/kg/injection, schedule: Q01DX009 (ip), vehicle: Klucel (hydroxypropylcellulose) (HPC)) 100 % of control.

Turning to `CNC(=O)OCC(Cl)(Cl)Cl`, the T/C is 102 % of control under setting [13], 114 % of control under setting [14] and 102 % of control under setting [15].

For the compound `O=NN(CCCl)C(=O)Nc1c[nH]c2ccccc12`, the T/C was 153 % of control and 158 % of control under setting [20]; 157 % of control and 158 % of control and 165 % of control under setting [16]; 162 % of control and 174 % of control under setting [6]; 174 % of control under setting [8].

Turning to `CCOC(=O)N(Cc1ccccc1)C1CC1`, the T/C (dose: 0.78 mg/kg/injection, schedule: Q04DX003 (ip), vehicle: saline) was 101 % of control; the T/C (dose: 1.56 mg/kg/injection, schedule: Q04DX003 (ip), vehicle: saline) was 93 % of control; the T/C (dose: 3.12 mg/kg/injection, schedule: Q04DX003 (ip), vehicle: saline) is 97 % of control; the T/C (dose: 6.25 mg/kg/injection, schedule: Q04DX003 (ip), vehicle: saline) was 101 % of control; the T/C (dose: 12.5 mg/kg/injection, schedule: Q04DX003 (ip), vehicle: saline) was 105 % of control; the T/C (dose: 25.0 mg/kg/injection, schedule: Q01DX009 (ip), vehicle: saline) is 105 % of control. The T/C is 100 % of control (dose: 50.0 mg/kg/injection, schedule: Q01DX009 (ip), vehicle: saline); 94 % of control under setting [17]; 102 % of control under setting [18]; 107 % of control under setting [19].
